# According to patent US20210188813A1, “EZH2 INHIBITOR AND PHARMACEUTICALLY ACCEPTABLE SALTS AND POLYMORPHIC SUBSTANCES THEREOF, AND APPLICATION OF EZH2 INHIBITOR” (SHANGHAI HAIYAN PHARMACEUTICAL TECHNOLOGY CO., LTD., priority 2018, published 2021):
# Legend:
# [1] = Solid state stability experiment; assay type: physicochemical
# From the text: Detected changes in crystal form and purity at 4 and 7 days.
# [2] = Dynamic solubility experiment; assay type: physicochemical; conditions: for Solubility: room temperature, 24 h
# From the text: The free base samples and the two crystal forms were plotted separately in the experiment.
# [3] = 60° C. and 40° C./75% RH, 4 and 7 days
structure (smiles),measurement,setting,value
CCc1c(C(=O)NCc2c(C)cc(C)[nH]c2=O)cc2c(cnn2C)c1N(CC)[C@H]1CC[C@H](N2CC(OC)C2)CC1.Cl [Crystal form A],Content (%),[1]; 4° C. 0 d,96.62%
same,Properties,[1]; 4° C. 0 d,Dark yellow
same,RRT(%) 0.86,[1]; 4° C. 0 d,0.21%
same,RRT(%) 0.89,[1]; 4° C. 0 d,0.11%
same,RRT(%) 0.94,[1]; 4° C. 0 d,0.31%
same,RRT(%) 0.97,[1]; 4° C. 0 d,0.09%
same,RRT(%) 1.04,[1]; 4° C. 0 d,0.42%
same,RRT(%) 1.07,[1]; 4° C. 0 d,0.67%
same,RRT(%) 1.10,[1]; 4° C. 0 d,0.42%
same,RRT(%) 1.13,[1]; 4° C. 0 d,0.18%
same,RRT(%) 1.15,[1]; 4° C. 0 d,0.38%
same,RRT(%) 1.16,[1]; 4° C. 0 d,0.60%
same,Total impurities (%),[1]; 4° C. 0 d,3.38%
same,Content (%),[1]; 40° C./75% RH 4 d,96.34%
same,Properties,[1]; 40° C./75% RH 4 d,Dark yellow
same,RRT(%) 0.86,[1]; 40° C./75% RH 4 d,0.21%
same,RRT(%) 0.89,[1]; 40° C./75% RH 4 d,0.09%
same,RRT(%) 0.94,[1]; 40° C./75% RH 4 d,0.28%
same,RRT(%) 0.97,[1]; 40° C./75% RH 4 d,0.09%
same,RRT(%) 1.04,[1]; 40° C./75% RH 4 d,0.49%
same,RRT(%) 1.07,[1]; 40° C./75% RH 4 d,0.75%
same,RRT(%) 1.10,[1]; 40° C./75% RH 4 d,0.51%
same,RRT(%) 1.13,[1]; 40° C./75% RH 4 d,0.19%
same,RRT(%) 1.15,[1]; 40° C./75% RH 4 d,0.41%
same,RRT(%) 1.16,[1]; 40° C./75% RH 4 d,0.60%
same,RRT(%) 1.20,[1]; 40° C./75% RH 4 d,0.07%
same,Total impurities (%),[1]; 40° C./75% RH 4 d,3.66%
same,Content (%),[1]; 40° C./75% RH 7 d,96.60%
same,Properties,[1]; 40° C./75% RH 7 d,Dark yellow
same,RRT(%) 0.86,[1]; 40° C./75% RH 7 d,0.22%
same,RRT(%) 0.89,[1]; 40° C./75% RH 7 d,0.09%
same,RRT(%) 0.94,[1]; 40° C./75% RH 7 d,0.31%
same,RRT(%) 0.97,[1]; 40° C./75% RH 7 d,0.09%
same,RRT(%) 1.04,[1]; 40° C./75% RH 7 d,0.47%
same,RRT(%) 1.07,[1]; 40° C./75% RH 7 d,0.75%
same,RRT(%) 1.10,[1]; 40° C./75% RH 7 d,0.32%
same,RRT(%) 1.13,[1]; 40° C./75% RH 7 d,0.11%
same,RRT(%) 1.15,[1]; 40° C./75% RH 7 d,0.38%
same,RRT(%) 1.16,[1]; 40° C./75% RH 7 d,0.59%
same,Total impurities (%),[1]; 40° C./75% RH 7 d,3.40%
same,solid state stability,"[1]; 40° C./75% RH, 4 and 7 days",stable
same,Content (%),[1]; 60° C. 4 d,85.19%
same,Properties,[1]; 60° C. 4 d,Dark yellow
same,RRT(%) 0.86,[1]; 60° C. 4 d,0.15%
same,RRT(%) 0.89,[1]; 60° C. 4 d,0.14%
same,RRT(%) 0.94,[1]; 60° C. 4 d,0.67%
same,RRT(%) 0.97,[1]; 60° C. 4 d,0.56%
same,RRT(%) 1.04,[1]; 60° C. 4 d,1.25%
same,RRT(%) 1.07,[1]; 60° C. 4 d,10.65%
same,RRT(%) 1.10,[1]; 60° C. 4 d,0.29%
same,RRT(%) 1.13,[1]; 60° C. 4 d,0.08%
same,RRT(%) 1.15,[1]; 60° C. 4 d,0.44%
same,RRT(%) 1.16,[1]; 60° C. 4 d,0.52%
same,RRT(%) 1.20,[1]; 60° C. 4 d,0.05%
same,Total impurities (%),[1]; 60° C. 4 d,14.81%
same,Content (%),[1]; 60° C. 7 d,75.90%
same,Properties,[1]; 60° C. 7 d,Dark yellow
same,RRT(%) 0.86,[1]; 60° C. 7 d,0.11%
same,RRT(%) 0.89,[1]; 60° C. 7 d,0.07%
same,RRT(%) 0.92,[1]; 60° C. 7 d,0.22%
same,RRT(%) 0.94,[1]; 60° C. 7 d,0.63%
same,RRT(%) 0.97,[1]; 60° C. 7 d,0.66%
same,RRT(%) 1.04,[1]; 60° C. 7 d,1.28%
same,RRT(%) 1.07,[1]; 60° C. 7 d,19.89%
same,RRT(%) 1.10,[1]; 60° C. 7 d,0.21%
same,RRT(%) 1.13,[1]; 60° C. 7 d,0.05%
same,RRT(%) 1.15,[1]; 60° C. 7 d,0.38%
same,RRT(%) 1.16,[1]; 60° C. 7 d,0.51%
same,RRT(%) 1.20,[1]; 60° C. 7 d,0.09%
same,Total impurities (%),[1]; 60° C. 7 d,24.10%
same,change in crystal form on storage,[1]; [3],the crystal form has not changed
same,change of impurities,"[1]; 60° C., 4 and 7 days",the impurities increase obviously
same,Phenomenon,[2]; 0.1M HCl,clear
same,Solubility,[2]; 0.1M HCl,≥62.8 mg/mL
same,Phenomenon,[2]; H2O,clear
same,Solubility,[2]; H2O,≥81.4 mg/mL
same,Phenomenon,[2]; pH 4.5 buffer,clear
same,Solubility,[2]; pH 4.5 buffer,≥43.8 mg/mL
same,Phenomenon,[2]; pH 6.8 buffer,clear
same,Solubility,[2]; pH 6.8 buffer,≥74.6 mg/mL
CCc1c(C(=O)NCc2c(C)cc(C)[nH]c2=O)cc2c(cnn2C)c1N(CC)[C@H]1CC[C@H](N2CC(OC)C2)CC1.O=C(O)/C=C\C(=O)O [Crystal form B],Content (%),[1]; 4° C. 0 d,96.94%
same,Properties,[1]; 4° C. 0 d,Off-white
same,RRT(%) 0.86,[1]; 4° C. 0 d,0.19%
same,RRT(%) 0.89,[1]; 4° C. 0 d,0.09%
same,RRT(%) 0.92,[1]; 4° C. 0 d,0.05%
same,RRT(%) 0.94,[1]; 4° C. 0 d,0.17%
same,RRT(%) 1.04,[1]; 4° C. 0 d,0.51%
same,RRT(%) 1.07,[1]; 4° C. 0 d,0.43%
same,RRT(%) 1.10,[1]; 4° C. 0 d,0.38%
same,RRT(%) 1.13,[1]; 4° C. 0 d,0.21%
same,RRT(%) 1.15,[1]; 4° C. 0 d,0.40%
same,RRT(%) 1.16,[1]; 4° C. 0 d,0.64%
same,Total impurities (%),[1]; 4° C. 0 d,3.06%
same,Content (%),[1]; 40° C./75% RH 4 d,96.88%
same,Properties,[1]; 40° C./75% RH 4 d,Off-white
same,RRT(%) 0.86,[1]; 40° C./75% RH 4 d,0.20%
same,RRT(%) 0.89,[1]; 40° C./75% RH 4 d,0.08%
same,RRT(%) 0.92,[1]; 40° C./75% RH 4 d,0.05%
same,RRT(%) 0.94,[1]; 40° C./75% RH 4 d,0.16%
same,RRT(%) 1.04,[1]; 40° C./75% RH 4 d,0.45%
same,RRT(%) 1.07,[1]; 40° C./75% RH 4 d,0.40%
same,RRT(%) 1.10,[1]; 40° C./75% RH 4 d,0.47%
same,RRT(%) 1.13,[1]; 40° C./75% RH 4 d,0.20%
same,RRT(%) 1.15,[1]; 40° C./75% RH 4 d,0.41%
same,RRT(%) 1.16,[1]; 40° C./75% RH 4 d,0.63%
same,RRT(%) 1.20,[1]; 40° C./75% RH 4 d,0.07%
same,Total impurities (%),[1]; 40° C./75% RH 4 d,3.12%
same,Content (%),[1]; 40° C./75% RH 7 d,96.95%
same,Properties,[1]; 40° C./75% RH 7 d,Off-white
same,RRT(%) 0.86,[1]; 40° C./75% RH 7 d,0.25%
same,RRT(%) 0.89,[1]; 40° C./75% RH 7 d,0.07%
same,RRT(%) 0.92,[1]; 40° C./75% RH 7 d,0.05%
same,RRT(%) 0.94,[1]; 40° C./75% RH 7 d,0.16%
same,RRT(%) 1.04,[1]; 40° C./75% RH 7 d,0.45%
same,RRT(%) 1.07,[1]; 40° C./75% RH 7 d,0.41%
same,RRT(%) 1.10,[1]; 40° C./75% RH 7 d,0.44%
same,RRT(%) 1.13,[1]; 40° C./75% RH 7 d,0.20%
same,RRT(%) 1.15,[1]; 40° C./75% RH 7 d,0.41%
same,RRT(%) 1.16,[1]; 40° C./75% RH 7 d,0.63%
same,Total impurities (%),[1]; 40° C./75% RH 7 d,3.05%
same,Content (%),[1]; 60° C. 4 d,97.34%
same,Properties,[1]; 60° C. 4 d,Off-white
same,RRT(%) 0.86,[1]; 60° C. 4 d,0.14%
same,RRT(%) 0.89,[1]; 60° C. 4 d,0.06%
same,RRT(%) 0.94,[1]; 60° C. 4 d,0.26%
same,RRT(%) 1.04,[1]; 60° C. 4 d,0.36%
same,RRT(%) 1.07,[1]; 60° C. 4 d,0.43%
same,RRT(%) 1.10,[1]; 60° C. 4 d,0.32%
same,RRT(%) 1.13,[1]; 60° C. 4 d,0.13%
same,RRT(%) 1.15,[1]; 60° C. 4 d,0.39%
same,RRT(%) 1.16,[1]; 60° C. 4 d,0.59%
same,Total impurities (%),[1]; 60° C. 4 d,2.66%
same,Content (%),[1]; 60° C. 7 d,97.30%
same,Properties,[1]; 60° C. 7 d,Off-white
same,RRT(%) 0.86,[1]; 60° C. 7 d,0.16%
same,RRT(%) 0.89,[1]; 60° C. 7 d,0.05%
same,RRT(%) 0.94,[1]; 60° C. 7 d,0.29%
same,RRT(%) 1.04,[1]; 60° C. 7 d,0.35%
same,RRT(%) 1.07,[1]; 60° C. 7 d,0.44%
same,RRT(%) 1.10,[1]; 60° C. 7 d,0.29%
same,RRT(%) 1.13,[1]; 60° C. 7 d,0.13%
same,RRT(%) 1.15,[1]; 60° C. 7 d,0.40%
same,RRT(%) 1.16,[1]; 60° C. 7 d,0.60%
same,Total impurities (%),[1]; 60° C. 7 d,2.70%
same,change in crystal form on storage,[1]; [3],the crystal form has not changed
same,solid state stability,[1]; [3],good stability
same,Phenomenon,[2]; 0.1M HCl,clear
same,Solubility,[2]; 0.1M HCl,≥30.4 mg/mL
same,Final pH,[2]; H2O,5.06
same,Phenomenon,[2]; H2O,turbid
same,Solubility,[2]; H2O,3.13 mg/mL
same,Final pH,[2]; pH 4.5 buffer,4.91
same,Phenomenon,[2]; pH 4.5 buffer,clear
same,Solubility,[2]; pH 4.5 buffer,≥3.07 mg/mL
same,Final pH,[2]; pH 6.8 buffer,6.53
same,Phenomenon,[2]; pH 6.8 buffer,clear
same,Solubility,[2]; pH 6.8 buffer,≥3.72 mg/mL
